The values below come from patent publication US11458114B2, “Methods and compositions for enhancing synthesis secretion and transport of collagen to increase wound strength” (NORTH CELL PHARMACEUTICALS, INC., priority 2020, dated 2022).

Read-outs that look alike come from different tables or passages of the source.

One data set concerns non-cancerous cells. Nature of the data set: Viable non-cancerous cells after incubation with anticancer drugs in various media. In kind it is cell-based. Further details: Percentage of viable cells, Drugs in commercial formula with SRF: concentration or dose not given beside the values.
Another data set has as its system wounds. Nature of the data set: Various drugs administered on wounds with or without sodium pyruvate or SRF: erythema rating and days to total re-epithelization. The conditions noted are these: for Drug in commercial formula with SRF. Days to healing / Drug in commercial formula with sodium pyruvate only. Days to healing / Drug in commercial formula Days to healing: days to total re-epithelization. As to the method:
All previous studies using pyruvate to treat wounds or be used as an antioxidant used only the sodium salt form of pyruvic acid. The drug products that were tested in previous studies used 1-3% sodium pyruvate and other sodium salts of alpha keto acids by weight 1-3% concentrations in the lotions and triple antibiotic formulations. […]

[1] abbreviates: Rating 1-10, 1 most erythema, 10 no erythema.
Where [2] appears, read: Rating 1-10, 1 most erythema, 10 no erythema, drug alone.

`N.N.O=C([O-])C1(C(=O)[O-])CCC1.[Pt+2]` [Carboplatin]: in the data set on non-cancerous cells, the “Percentage of viable cells, Drugs in commercial formula” value was 50%; the “Percentage of viable cells, Drugs in commercial formula sodium pyruvate without SRF” value was found to be 56%; the “Percentage of viable cells, Drugs in commercial formula with SRF” value amounted to 87%. Further, in the data set on non-cancerous cells (drug), the “Percentage of viable cells after incubation with drugs” value (shortened to “Percentage … with drugs”) came to 42%. Moreover, the “Percentage of viable cells, Drugs in commercial formula with SRF repeat study” value (shortened to “Percentage … with SRF repeat study”) in the data set with non-cancerous cells (repeat study) was 97%.
As for `Clc1ccccc1C(c1ccccc1)(c1ccccc1)n1ccnc1` [Chlotrimizole], in the data set on wounds, the “Drug in commercial formula with SRF. Days to healing” value (from here on “Drug … with SRF. Days to healing”) is 11 days and the “Drug in commercial formula with sodium pyruvate only. Days to healing” value was determined as 15 days. The “Drug in commercial formula Days to healing” value in the data set on wounds (drug alone) is on record as 22 days. In the data set on wounds (in vivo), the “Drugs in commercial formula erythema” value is 4, the “Drugs in commercial formula with SRF erythema” value (shortened to “Drugs … with SRF erythema”) is given as 8 and the “Drugs in commercial formula with sodium pyruvate only erythema” value (“Drugs … with sodium pyruvate only erythema” for short) amounted to 6.
On to `CC(=O)OCC(CCn1cnc2cnc(N)nc21)COC(C)=O` [Famciclovir], for which, in the data set on wounds (setting [1]), the “Drugs … with SRF erythema” value is recorded as 7 and the “Drugs … with sodium pyruvate only erythema” value amounted to 6. In the data set on wounds (setting [2]), the “Drugs in commercial formula erythema” value was 5. Besides, in the data set with wounds, the “Drug … with SRF. Days to healing” value came to 12 days and the “Drug in commercial formula with sodium pyruvate only. Days to healing” value is given as 14 days. Also, the “Drug in commercial formula Days to healing” value in the data set on wounds (drug alone) was 17 days.
In the case of `Nc1nc2c(ncn2CCC(CO)CO)c(=O)[nH]1` [Penciclovir], in the data set with wounds (setting [1]), the “Drugs … with SRF erythema” value came to 8 and the “Drugs … with sodium pyruvate only erythema” value is given as 7. Further, in the data set with wounds (setting [2]), the “Drugs in commercial formula erythema” value was 7. For the same molecule, in the data set with wounds, the “Drug … with SRF. Days to healing” value turned out to be 12 days and the “Drug in commercial formula with sodium pyruvate only. Days to healing” value was found to be 16 days. The “Drug in commercial formula Days to healing” value in the data set with wounds (drug alone) was found to be 17 days.
With `CC1=C(/C=C/C(C)=C/C=C/C(C)=C/CO)C(C)(C)CCC1` [Retinol], in the data set with wounds (setting [1]), the “Drugs … with SRF erythema” value was determined as 7 and the “Drugs … with sodium pyruvate only erythema” value is reported as 3. Besides, the “Drugs in commercial formula erythema” value in the data set with wounds (setting [2]) turned out to be 1. Also, in the data set with wounds, the “Drug … with SRF. Days to healing” value stood at 9 days and the “Drug in commercial formula with sodium pyruvate only. Days to healing” value is on record as 15 days. For the same molecule, the “Drug in commercial formula Days to healing” value in the data set on wounds (drug alone) stood at 19 days.
`CC(C)(C#N)c1cc(Cn2cncn2)cc(C(C)(C)C#N)c1` [anastrozole]: in the data set with non-cancerous cells, the “Percentage … with drugs” value is on record as 24%; the “Percentage of viable cells, Drugs in commercial formula” value is 25%; the “Percentage of viable cells, Drugs in commercial formula sodium pyruvate without SRF” value is 50%; the “Percentage of viable cells, Drugs in commercial formula with SRF” value amounted to 86%. For the same molecule, the “Percentage … with SRF repeat study” value with non-cancerous cells is on record as 94%.
For the molecule `CN(Cc1ccc(C(C)(C)C)cc1)Cc1cccc2ccccc12` [butenafine], in the data set with wounds (setting [1]), the “Drugs … with SRF erythema” value is 5 and the “Drugs … with sodium pyruvate only erythema” value is 4. Also, the “Drugs in commercial formula erythema” value in the data set on wounds (setting [2]) was 3. Moreover, in the data set on wounds, the “Drug … with SRF. Days to healing” value stood at 16 days and the “Drug in commercial formula with sodium pyruvate only. Days to healing” value was 18 days. For the same molecule, the “Drug in commercial formula Days to healing” value in the data set on wounds (drug alone) is reported as 21 days.
`Cc1cc(C2CCCCC2)n(O)c(=O)c1` [ciclopirox]: in the data set on wounds (setting [1]), the “Drugs … with SRF erythema” value came to 9 and the “Drugs … with sodium pyruvate only erythema” value is reported as 5. The “Drugs in commercial formula erythema” value in the data set with wounds (setting [2]) is on record as 4. In addition, in the data set with wounds, the “Drug … with SRF. Days to healing” value came to 9 days and the “Drug in commercial formula with sodium pyruvate only. Days to healing” value was 11 days. The “Drug in commercial formula Days to healing” value with wounds (drug alone) is given as 20 days.
Take `Clc1ccc(COC(Cn2ccnc2)c2ccc(Cl)cc2Cl)cc1` (centres unmarked) [econazole]: in the data set with wounds (setting [1]), the “Drugs … with SRF erythema” value came out at 6 and the “Drugs … with sodium pyruvate only erythema” value was determined as 6. The “Drugs in commercial formula erythema” value in the data set on wounds (setting [2]) turned out to be 6. In the data set on wounds, the “Drug … with SRF. Days to healing” value is given as 14 days and the “Drug in commercial formula with sodium pyruvate only. Days to healing” value is listed as 17 days. In the data set with wounds (drug alone), the “Drug in commercial formula Days to healing” value is reported as 19 days.
Turning to `CC[C@H]1OC(=O)[C@H](C)[C@@H](O[C@H]2C[C@@](C)(OC)[C@@H](O)[C@H](C)O2)[C@H](C)[C@@H](O[C@@H]2O[C@H](C)C[C@H](N(C)C)[C@H]2O)[C@](C)(O)C[C@@H](C)C(=O)[C@H](C)[C@@H](O)[C@]1(C)O` [erythromycin], in the data set with wounds (setting [1]), the “Drugs … with SRF erythema” value worked out at 8 and the “Drugs … with sodium pyruvate only erythema” value turned out to be 5. Also, in the data set with wounds (setting [2]), the “Drugs in commercial formula erythema” value stood at 6. In the data set with wounds, the “Drug … with SRF. Days to healing” value worked out at 9 days and the “Drug in commercial formula with sodium pyruvate only. Days to healing” value is on record as 13 days. In addition, the “Drug in commercial formula Days to healing” value in the data set with wounds (drug alone) is on record as 19 days.
Regarding `O=c1[nH]c(=O)n([C@H]2C[C@H](O)[C@@H](CO)O2)cc1F` [floxuridine], in the data set on non-cancerous cells, the “Percentage … with drugs” value was 38%; the “Percentage of viable cells, Drugs in commercial formula” value is given as 38%; the “Percentage of viable cells, Drugs in commercial formula sodium pyruvate without SRF” value turned out to be 58%; the “Percentage of viable cells, Drugs in commercial formula with SRF” value is 92%. Further, the “Percentage … with SRF repeat study” value with non-cancerous cells is on record as 91%.
Consider `CC(=O)N1CCN(c2ccc(OCC3COC(Cn4ccnc4)(c4ccc(Cl)cc4Cl)O3)cc2)CC1` (centres unmarked) [ketoconazole], for which, in the data set with wounds (setting [1]), the “Drugs … with SRF erythema” value turned out to be 8 and the “Drugs … with sodium pyruvate only erythema” value amounted to 6. For the same molecule, the “Drugs in commercial formula erythema” value with wounds (setting [2]) came out at 3. In the data set with wounds, the “Drug … with SRF. Days to healing” value turned out to be 14 days and the “Drug in commercial formula with sodium pyruvate only. Days to healing” value was found to be 20 days. In addition, in the data set with wounds (drug alone), the “Drug in commercial formula Days to healing” value was 23 days.
In the case of `NCc1ccc(S(N)(=O)=O)cc1` [mafenide], in the data set on wounds (setting [1]), the “Drugs … with SRF erythema” value is given as 7 and the “Drugs … with sodium pyruvate only erythema” value is on record as 8. Further, the “Drugs in commercial formula erythema” value with wounds (setting [2]) stood at 8. In the data set with wounds, the “Drug … with SRF. Days to healing” value is 12 days and the “Drug in commercial formula with sodium pyruvate only. Days to healing” value was found to be 14 days. Further, the “Drug in commercial formula Days to healing” value in the data set on wounds (drug alone) was 18 days.
Regarding `CN(Cc1cnc2nc(N)nc(N)c2n1)c1ccc(C(=O)N[C@@H](CCC(=O)O)C(=O)O)cc1` [methotrexate], in the data set on non-cancerous cells, the “Percentage of viable cells, Drugs in commercial formula” value was 43%; the “Percentage of viable cells, Drugs in commercial formula sodium pyruvate without SRF” value turned out to be 68%; the “Percentage of viable cells, Drugs in commercial formula with SRF” value was 94%. Moreover, the “Percentage … with drugs” value in the data set with non-cancerous cells (drug) is on record as 42%. Besides, the “Percentage … with SRF repeat study” value with non-cancerous cells (repeat study) was 98%.
For `CN(C/C=C/c1ccccc1)Cc1cccc2ccccc12` [naftifine], in the data set with wounds (setting [1]), the “Drugs … with SRF erythema” value stood at 7 and the “Drugs … with sodium pyruvate only erythema” value is given as 6. Further, in the data set with wounds (setting [2]), the “Drugs in commercial formula erythema” value stood at 3. Further, in the data set with wounds, the “Drug … with SRF. Days to healing” value is listed as 13 days and the “Drug in commercial formula with sodium pyruvate only. Days to healing” value was found to be 14 days. The “Drug in commercial formula Days to healing” value with wounds (drug alone) is 20 days.
Take `C[C@@H]1[C@H](O)[C@@H](C)/C=C/C=C/CC/C=C/C=C/C=C/C=C/C(O[C@H]2O[C@H](C)[C@@H](O)[C@H](N)[C@@H]2O)CC2O[C@](O)(CC(O)C(O)CCC(O)CC(O)CC(O)CC(=O)O[C@H]1C)CC(O)C2C(=O)O` (some centres unmarked) [nystatin]: in the data set on wounds (setting [1]), the “Drugs … with SRF erythema” value was found to be 8 and the “Drugs … with sodium pyruvate only erythema” value was found to be 6. For the same molecule, in the data set with wounds (setting [2]), the “Drugs in commercial formula erythema” value is given as 2. For the same molecule, in the data set on wounds, the “Drug … with SRF. Days to healing” value was found to be 12 days and the “Drug in commercial formula with sodium pyruvate only. Days to healing” value came to 14 days. The “Drug in commercial formula Days to healing” value in the data set on wounds (drug alone) is reported as 17 days.
For `Clc1ccc(CO/N=C(\Cn2ccnc2)c2ccc(Cl)cc2Cl)c(Cl)c1` [oxiconazole], in the data set with wounds (setting [1]), the “Drugs … with SRF erythema” value was 9 and the “Drugs … with sodium pyruvate only erythema” value is 7. In addition, the “Drugs in commercial formula erythema” value in the data set on wounds (setting [2]) was found to be 6. In the data set on wounds, the “Drug … with SRF. Days to healing” value worked out at 11 days and the “Drug in commercial formula with sodium pyruvate only. Days to healing” value was determined as 14 days. In addition, in the data set with wounds (drug alone), the “Drug in commercial formula Days to healing” value is given as 18 days.
On to `Clc1ccc(CSC(Cn2ccnc2)c2ccc(Cl)cc2Cl)cc1` (centres unmarked) [sulconazole], for which, in the data set with wounds (setting [1]), the “Drugs … with SRF erythema” value turned out to be 8 and the “Drugs … with sodium pyruvate only erythema” value turned out to be 6. Further, in the data set on wounds (setting [2]), the “Drugs in commercial formula erythema” value worked out at 4. Also, in the data set with wounds, the “Drug … with SRF. Days to healing” value stood at 11 days and the “Drug in commercial formula with sodium pyruvate only. Days to healing” value stood at 15 days. Further, in the data set on wounds (drug alone), the “Drug in commercial formula Days to healing” value was determined as 20 days.
Turning to `Cc1cccc(N(C)C(=S)Oc2ccc3ccccc3c2)c1` [tolnaftate], in the data set with wounds (setting [1]), the “Drugs … with SRF erythema” value is recorded as 7 and the “Drugs … with sodium pyruvate only erythema” value came out at 7. Also, the “Drugs in commercial formula erythema” value in the data set on wounds (setting [2]) was 7. In the data set with wounds, the “Drug … with SRF. Days to healing” value worked out at 10 days and the “Drug in commercial formula with sodium pyruvate only. Days to healing” value worked out at 13 days. Besides, the “Drug in commercial formula Days to healing” value with wounds (drug alone) is listed as 21 days.
For `CC(C)[C@H](N)C(=O)OCCOCn1cnc2c(=O)[nH]c(N)nc21` [valaciclovir], in the data set with wounds (setting [1]), the “Drugs … with SRF erythema” value stood at 8 and the “Drugs … with sodium pyruvate only erythema” value was 8. The “Drugs in commercial formula erythema” value in the data set with wounds (setting [2]) is reported as 8. For the same molecule, in the data set with wounds, the “Drug … with SRF. Days to healing” value is reported as 14 days and the “Drug in commercial formula with sodium pyruvate only. Days to healing” value is 17 days. Further, the “Drug in commercial formula Days to healing” value in the data set with wounds (drug alone) was determined as 18 days.
Consider microazole, for which, in the data set with wounds, the “Drug … with SRF. Days to healing” value was determined as 11 days and the “Drug in commercial formula with sodium pyruvate only. Days to healing” value turned out to be 12 days. The “Drug in commercial formula Days to healing” value in the data set on wounds (drug alone) is recorded as 19 days. In addition, in the data set on wounds (in vivo), the “Drugs in commercial formula erythema” value amounted to 5, the “Drugs … with SRF erythema” value was 7 and the “Drugs … with sodium pyruvate only erythema” value is listed as 6.
